Data taken from US6107469A, “Minimum recognition unit of a pem mucin tandem repeat specific monoclonal antibody” (Cancer Therapeutics Limited, priority 1991, dated 2000).
Entries after “also recorded” stand apart in the source; their conditions may differ.

System: immobilised mucin receptor peptide (YVTSAPDTRPAPGST, the epitope sequence from the mucin molecule)
Assay: Equilibrium dialysis binding of I125-labelled EPPT peptides to immobilised mucin receptor peptide
Conditions: 24-48 hours at room temperature, FIGS. 2 and 3
Description: Preparation of immobilised mucin receptor peptide. 7.5 mg of YVTSAPDTRPAPGST (SEQ ID No 18) (the epitope sequence from the mucin molecule) was dissolved in 100 mM sodium phosphate buffer pH8. This was mixed with 7.5 mg of bovine serum albumin (BSA) and made up to 0.5 ml with buffer. 5 μl of 25% glutaraldehye was added, mixed and left to stand at room temperature for 15 minutes. A further 2.5 μl of glutaraldehyde was then added and the mixture left for a further 15 minutes.
Following the incubation, 100 μl of 1M glycine pH6 was added and left for 10 minutes to quench the glutaraldehyde. The reaction mixture was then aliquoted into 100 μl portions and stored at -20° C. until use.
Radiolabelling of EPPT peptides prior to binding assays. Peptides were dissolved in phosphate buffered saline, 100 mM sodium phosphate pH8, or 5% DMSO in sodium phosphate. […] 1 ml fractions were collected from the eluate and assayed for radioactivity.
Binding of EPPT peptides to immobilised mucin receptor peptide. […] Samples are removed from both sides of the membrane and assayed for the presence of radioactivity. […] Following incubation and equilibration, samples were removed from the dialysis module and counted for the presence of I^125. The radioactivity was then converted to amount of peptide for the purposes of determining the amount bound to the immobilised receptor peptide.

H-EPPTRTFAY-OH [EPPTRTFAY, NH2-EPPTRTFAY-COOH]
binding to the mucin receptor peptide: no real binding; also recorded: does not itself appear to bind
